Experimental data from patent US12059473B2, “Humanized anti-prostate -specific membrane antigen (PSMA) antibody drug conjugates” (Ambrx, Inc., priority 2018, dated 2024).

Legend:
[1] = test system: C4-2 human carcinoma xenografts; patient derived xenograft (PDX) TM00298 prostate tumors; experiment: Repeat dose and enzalutamide combination efficacy in prostate tumor models; assay type: in vivo, mice; settings: enzalutamide as a single agent; prostate cancer cells
Description: Anti-tumor efficacy of the anti-PSMA ADCs of the invention in combination with hormone therapy enzalutamide was tested in tumor xenograft model in mice engrafted with prostate cancer cell line. Metastatic castration resistant prostate cancer (mCRPC) relevant cell line, C4-2, was obtained from ATCC and expanded in vitro following ATCC instructions. C4-2 human carcinoma xenografts were grown in male immune-compromised mice with cells implanted subcutaneously. A second model using male immunocompromised mice bearing patient derived xenograft (PDX) TM00298 (Jackson Laboratories, CA) prostate tumors was also studied.
Mice were weighed and measured for tumor volume using an electronic caliper. Individual tumor volume was calculated as length×width×width/2. Mice with vascularized tumors (determined by appearance) averaging a volume of 500 mm^3 were randomized into treatment groups and were dosed intravenously per individual body weight. Anti-PSMA ADCs were administered intravenously at 0.5, 1, and 3 mg/kg weekly for 4 weeks in the C4-2 model and at 1 and 3 mg/kg weekly for 4 weeks in the PDX model. In both prostate models, enzalutamide was administered orally daily at 10 mg/kg, for 28 days. In both prostate models, one group of mice were administered a combination therapy of 1 mg/kg anti-PSMA ADC plus 10 mg/kg enzalutamide, FIGS. 7 and 8. […]

[2] = test system: cell surface PSMA expression; settings: in vitro; Murga et al. 2015; cited from earlier work

SMILES: CNC(=O)c1ccc(N2C(=S)N(c3ccc(C#N)c(C(F)(F)F)c3)C(=O)C2(C)C)cc1F [enzalutamide]
- level of cell surface PSMA [1]: increased the level of cell surface PSMA in prostate cancer cells
- increase of cell surface PSMA expression [2]: approximately 3 fold
